Laboratory results: paper PMC12578816 (Scientific Reports, 2025)
pKi: −log10 of the molar value. In brackets after ≈: the same amount, converted by molar mass. Entries after “also recorded” stand apart in the source; their conditions may differ. Where two headings read alike, the source gives them in different places.

How the values were obtained:
[1] = system: α-glucosidase (from Saccharomyces cerevisiae); assay: α-glucosidase inhibitory assay; assay type: biochemical
[2] = system: α-glucosidase (from Saccharomyces cerevisiae); assay: α-glucosidase enzyme kinetic analysis; conditions: for inhibition mechanism: Lineweaver–Burk plots; for pKi: secondary plot of slopes
α-glucosidase = conditions: cited from earlier work

With `Nc1ncnc2c1ncn2[C@@H]1O[C@H](CO)[C@@H](O)[C@H]1O` [Adenosine] the “α-glucosidase inhibitory activity of isolated compounds (in words)” value (shortened to “α-glucosidase inhibitory activity”) [1] was “exhibited α-glucosidase inhibitory activity”, the inhibition mechanism [2] was “mixed-type” and the pKi [2] was 4.04.

In the case of `CCCCC/C=C\C/C=C\CCCCCCCC(=O)O` [linoleic acid], the inhibition mechanism (α-glucosidase; fatty acids) is listed as “mixed-type”.

In the case of `O=Cc1ccc(O)cc1` [4-hydroxybenzaldehyde], the “α-glucosidase inhibitory activity” value [1] was “no inhibitory activity”.

For `CCCCOC(=O)c1ccccc1C(=O)OCCCC` [DBP, dibutyl phthalate], the “α-glucosidase inhibitory activity” value [1] was “exhibited α-glucosidase inhibitory activity”, the inhibition mechanism [2] was “mixed-type” and the pKi [2] was 3.29.

For `CC/C=C\C/C=C\C/C=C\C/C=C\C/C=C\CCCC(=O)O` [eicosapentaenoic acid], the inhibition mechanism (α-glucosidase; fatty acids) is listed as “mixed-type”.

With `CC(=O)c1nccc2c1[nH]c1ccccc12` [1-acetyl-β-carboline] the “α-glucosidase inhibitory activity” value [1] was “no inhibitory activity”.

In the case of hydroxyglutaric acid [HGA], the IC50 (α-glucosidase; from Paenibacillus sp. TKU042) is listed as 220 µg/mL.

In the case of `CCCCC/C=C\C/C=C\C/C=C\C/C=C\CCCC(=O)O` [arachidonic acid], the inhibition mechanism (α-glucosidase; fatty acids) is listed as “mixed-type”.

In the case of `CC/C=C\C/C=C\C/C=C\CCCCCCCC(=O)O` [α-linolenic acid], the inhibition mechanism (α-glucosidase; fatty acids) is listed as “mixed-type”.

For `OC[C@H]1O[C@H](O[C@H]2[C@H](O)[C@@H](O)[C@@H](O[C@H]3[C@H](O)[C@@H](O)[C@@H](O[C@H]4[C@H](O)[C@@H](O)[C@@H](O[C@H]5[C@H](O)[C@@H](O)C(O)O[C@@H]5CO)O[C@@H]4CO)O[C@@H]3CO)O[C@@H]2CO)[C@H](O)[C@@H](O)[C@@H]1N[C@@H]1[C@H](O)[C@@H](O)[C@H](O)[C@]2(CO)O[C@H]12` (stereo partly drawn) [CKD-711a], the IC50 (α-glucosidase) is listed as 6.5 µg/mL (≈ 6.49 µM).

For `OC[C@H]1O[C@H](O[C@H]2[C@H](O)[C@@H](O)[C@@H](O[C@H]3[C@H](O)[C@@H](O)C(O)O[C@@H]3CO)O[C@@H]2CO)[C@H](O)[C@@H](O)[C@@H]1N[C@@H]1[C@H](O)[C@@H](O)[C@H](O)[C@]2(CO)O[C@H]12` (stereo partly drawn) [CKD-711], the IC50 (α-glucosidase) is given as 2.5 µg/mL (≈ 3.69 µM).

In the case of `O=c1ccn([C@@H]2O[C@H](CO)[C@@H](O)[C@H]2O)c(=O)[nH]1` [Uridine], the “α-glucosidase inhibitory activity” value [1] was “exhibited α-glucosidase inhibitory activity”, the inhibition mechanism [2] was “competitive inhibitor; also recorded: competitive inhibition” and the pKi [2] was 3.81.

For `CCCCCCCC/C=C\CCCCCCCC(=O)O` [oleic acid], the inhibition mechanism (α-glucosidase; fatty acids) is listed as “mixed-type”.

For `O=c1c(-c2ccc(O)cc2)coc2cc(O)cc(O)c12` [genistein], the inhibition type (α-glucosidase) is listed as “non-competitive inhibitor”.

In the case of `C[C@H]1O[C@H](O[C@H]2[C@H](O)[C@@H](O)[C@@H](O[C@H]3[C@H](O)[C@@H](O)C(O)O[C@@H]3CO)O[C@@H]2CO)[C@H](O)[C@@H](O)[C@@H]1N[C@H]1C=C(CO)[C@@H](O)[C@H](O)[C@H]1O` (stereo partly drawn) [Acarbose, reference compound], the “Inhibition (%)” value ([1]; 10 mg/mL, n = 3, mean ± SD) is given as 80.2 ± 0.7%, the inhibition mechanism (α-glucosidase) is given as “competitive inhibitor” and the inhibition mechanism [2] is given as “competitive inhibition”.

In the case of `CCCCCCCCCCCCCCCC(=O)O` [C16:0, Palmitic acid], the inhibition mechanism (α-glucosidase; fatty acids) is given as “mixed-type”.
